From patent US20260200939A1, “MOLECULAR GLUE DEGRADER COMPOUNDS AND USES THEREOF” (Novartis AG, priority 2022, published 2026)

Columns and labels:
BRD4 long = biological target: T1, BRD4 long (Homo sapiens, UniProt O60885); experiment: BRD4 (long) degradation assay, Western blotting; assay type: cell-based
T1 construct: endogenous in cells; host or cells: HEK293T
Description: (§1) C33A cells were purchased from American Type Culture Collection (ATCC) and were cultured in Dulbecco's Modified Eagle Medium (DMEM) containing 10% (v/v) fetal bovine serum (FBS) and maintained at 37° C. with 5% CO2. 22RV1 cells were purchased from the ATCC and were cultured in RPMI-1640 Medium containing 10% (v/v) FBS and maintained at 37° C. with 5% CO2. HEK293T cells were obtained from the UC Berkeley Cell Culture Facility and were cultured in DMEM containing 10% (v/v) FBS and maintained at 37° C. with 5% CO2. K562 cells were obtained from the UC Berkeley Cell Culture Facility and were cultured in Iscove's Modified Dulbecco's Medium (IMDM) containing 10% (v/v) FBS and maintained at 37° C. with 5% CO2. MV-4-11 cells were obtained from the ATCC and were cultured in IMDM containing 10% (v/v) FBS and maintained at 37° C. with 5% CO2. A549 cells were obtained from the ATCC and were cultured in F-12K Medium containing 10% (v/v) FBS and maintained at 37° C. with 5% CO2. Mino cells were obtained from the ATCC and were cultured in RPMI-1640 Medium containing 10% (v/v) FBS and maintained at 37° C. with 5% CO2. LNCaP cells were obtained from the ATCC and were cultured in RPMI-1640 Medium containing 10% (v/v) FBS and maintained at 37° C. with 5% CO2. Unless otherwise specified, all cell culture materials were purchased from Gibco. It is not known whether HEK293T cells are from male or female origin.
(§2) Cells were washed twice with cold PBS, scraped, and pelleted by centrifugation (700 g, 5 min, 4° C.). Pellets were resuspended in PBS, sonicated, clarified by centrifugation (12,000 g, 10 min, 4° C.), and lysate was transferred to new low-adhesion microcentrifuge tubes. Proteome concentrations were determined using BCA assay and lysate was diluted to appropriate working concentrations.
(§3) Proteins were resolved by SDS/PAGE and transferred to nitrocellulose membranes using the Trans-Blot Turbo transfer system (Bio-Rad). Membranes were blocked with 5% BSA in Tris-buffered saline containing Tween 20 (TBS-T) solution for 30 min at RT, washed in TBS-T, and probed with primary antibody diluted in recommended diluent per manufacturer overnight at 4° C. After 3 washes with TBS-T, the membranes were incubated in the dark with IR680- or IR800-conjugated secondary antibodies at 1:10,000 dilution in 5% BSA in TBS-T at RT for 1 h. After 3 additional washes with TBST, blots were visualized using an Odyssey Li-Cor fluorescent scanner. The membranes were stripped using ReBlot Plus Strong Antibody Stripping Solution (EMD Millipore) when additional primary antibody incubations were performed. Antibodies used in this study were CDK4 (Abcam ab108357), Vinculin (Abcam ab129002), GAPDH (Cell Signaling Technology 14C10), RNF126 (Santa Cruz Biotechnology sc-376005), BRD4 (Abcam ab128874), Beta Actin (Cell Signaling Technology 13E5), PDE5 (Abcam ab259945), AR-V7 (Abcam ab273500), c-Abl (Santa Cruz Biotechnology sc-23), SMARCA2 (Abcam ab240648), LRRK2 (Abcam ab133474), BTK (Cell Signaling Technology D3H5), Androgen Receptor (Abcam ab133273).

BRD4 short = biological target: T2, BRD4 short (Homo sapiens, UniProt O60885); experiment: BRD4 (short) degradation assay, Western blotting; assay type: cell-based
T2 construct: endogenous in cells; host or cells: HEK293T
Description: as §1, §2, §3

[1] = first value of cell (long/short)
[2] = second value of cell (long/short)
[3] = first value of cell, range with lower bound in nM and upper bound in μM
[4] = second value of cell, range with lower bound in nM and upper bound in μM

Row | SMILES | DC50 (BRD4 long; [1]) [nM] | DC50 (BRD4 short; [2]) [nM] | DC50 (BRD4 long; [3]) [nM] | DC50 (BRD4 short; [4]) [nM]
1 | COc1ccc(C(=O)/C=C/C(=O)N2CC3CCC(C2)N(C(=O)C[C@@H]2N=C(c4ccc(Cl)cc4)c4c(sc(C)c4C)-n4c(C)nnc42)C3)cc1 (stereo partly drawn) [Compound 228, (E)-1-(6-(2-((S)-4-(4-chlorophenyl)-2,3,9-trimethyl-6H-thieno[3,2-f][1,2,4]triazolo[4,3-a][1,4]diazepin-6-yl)acetyl)-3,6-diazabicyclo[3.2.2]nonan-3-yl)-4-(4-methoxyphenyl)but-2-ene-1,4-dione] | 10 to 100 | 10 to 100 |  | 
2 | COc1ccc(C(=O)/C=C/C(=O)N2CC3CC(C2)CN(C(=O)C[C@@H]2N=C(c4ccc(Cl)cc4)c4c(sc(C)c4C)-n4c(C)nnc42)C3)cc1 [Compound 229, (E)-1-(7-(2-((S)-4-(4-chlorophenyl)-2,3,9-trimethyl-6H-thieno[3,2-f][1,2,4]triazolo[4,3-a][1,4]diazepin-6-yl)acetyl)-3,7-diazabicyclo[3.3.1]nonan-3-yl)-4-(4-methoxyphenyl)but-2-ene-1,4-dione] |  |  | 100 to 1000 | 100 to 1000
3 | COc1ccc(C(=O)/C=C/C(=O)N2CC3CN(C(=O)C[C@@H]4N=C(c5ccc(Cl)cc5)c5c(sc(C)c5C)-n5c(C)nnc54)CC3C2)cc1 (stereo partly drawn) [Compound 230, (E)-1-(5-(2-((S)-4-(4-chlorophenyl)-2,3,9-trimethyl-6H-thieno[3,2-f][1,2,4]triazolo[4,3-a][1,4]diazepin-6-yl)acetyl)hexahydropyrrolo[3,4-c]pyrrol-2(1H)-yl)-4-(4-methoxyphenyl)but-2-ene-1,4-dione] | 10 to 100 | 10 to 100 |  | 
4 | COc1ccc(C(=O)/C=C/C(=O)N2CCC3(CC2)CN(C(=O)C[C@@H]2N=C(c4ccc(Cl)cc4)c4c(sc(C)c4C)-n4c(C)nnc42)CCO3)cc1 [Compound 231, (S,E)-1-(4-(2-(4-(4-chlorophenyl)-2,3,9-trimethyl-6H-thieno[3,2-f][1,2,4]triazolo[4,3-a][1,4]diazepin-6-yl)acetyl)-1-oxa-4,9-diazaspiro[5.5]undecan-9-yl)-4-(4-methoxyphenyl)but-2-ene-1,4-dione] | 10 to 100 | 1 to 10 |  | 
5 | COc1ccc(C(=O)/C=C\C(=O)N2CCN(C(=O)C[C@@H]3N=C(c4ccc(Cl)cc4)c4c(sc(C)c4C)-n4c(C)nnc43)CC2)cc1 [Compound 232, (S,Z)-1-(4-(2-(4-(4-chlorophenyl)-2,3,9-trimethyl-6H-thieno[3,2-f][1,2,4]triazolo[4,3-a][1,4]diazepin-6-yl)acetyl)piperazin-1-yl)-4-(4-methoxyphenyl)but-2-ene-1,4-dione] | 10 to 100 | 10 to 100 |  | 
6 | COc1ccc(C(=O)/C=C/C(=O)N2CCN(C(=O)C[C@@H]3N=C(c4ccc(Cl)cc4)c4c(sc(C)c4C)-n4c(C)nnc43)CC2)c(F)c1 [Compound 233, (S,E)-1-(4-(2-(4-(4-chlorophenyl)-2,3,9-trimethyl-6H-thieno[3,2-f][1,2,4]triazolo[4,3-a][1,4]diazepin-6-yl)acetyl)piperazin-1-yl)-4-(2-fluoro-4-methoxyphenyl)but-2-ene-1,4-dione] | < 100 | < 100 |  | 
7 | COc1ccc(C(=O)/C=C/C(=O)N[C@H]2C[C@H](NC(=O)CC3N=C(c4ccc(Cl)cc4)c4c(sc(C)c4C)-n4c(C)nnc43)C2)c(F)c1 (stereo partly drawn) [Compound 234, (E)-N-((1S,3r)-3-(2-((S)-4-(4-chlorophenyl)-2,3,9-trimethyl-6H-thieno[3,2-f][1,2,4]triazolo[4,3-a][1,4]diazepin-6-yl)acetamido)cyclobutyl)-4-(2-fluoro-4-methoxyphenyl)-4-oxobut-2-enamide] | 50 | 150 |  | 
8 | COc1cc(F)ccc1C(=O)/C=C/C(=O)N1CCN(C(=O)C[C@@H]2N=C(c3ccc(Cl)cc3)c3c(sc(C)c3C)-n3c(C)nnc32)CC1 [Compound 235, (S,E)-1-(4-(2-(4-(4-chlorophenyl)-2,3,9-trimethyl-6H-thieno[3,2-f][1,2,4]triazolo[4,3-a][1,4]diazepin-6-yl)acetyl)piperazin-1-yl)-4-(4-fluoro-2-methoxyphenyl)but-2-ene-1,4-dione] | < 100 | < 100 |  | 
9 | COc1ccc(C(=O)/C=C/C(=O)N[C@H]2C[C@H](NC(=O)C[C@@H]3N=C(c4ccc(Cl)cc4)c4c(sc(C)c4C)-n4c(C)nnc43)C2)cc1F [Compound 236, (E)-N-((1S,3r)-3-(2-((S)-4-(4-chlorophenyl)-2,3,9-trimethyl-6H-thieno[3,2-f][1,2,4]triazolo[4,3-a][1,4]diazepin-6-yl)acetamido)cyclobutyl)-4-(3-fluoro-4-methoxyphenyl)-4-oxobut-2-enamide] | 90 | 190 |  | 
10 | COc1ccc(C(=O)/C=C/C(=O)N2CCN(C(=O)C[C@@H]3N=C(c4ccc(Cl)cc4)c4c(sc(C)c4C)-n4c(C)nnc43)CC2)cc1F [Compound 237, (S,E)-1-(4-(2-(4-(4-chlorophenyl)-2,3,9-trimethyl-6H-thieno[3,2-f][1,2,4]triazolo[4,3-a][1,4]diazepin-6-yl)acetyl)piperazin-1-yl)-4-(3-fluoro-4-methoxyphenyl)but-2-ene-1,4-dione] | < 100 | < 100 |  | 
11 | Cc1sc2c(c1C)C(c1ccc(Cl)cc1)=N[C@@H](CC(=O)N1CCN(C(=O)/C=C/C(=O)c3ccc(C#N)cc3)CC1)c1nnc(C)n1-2 [Compound 238, (S,E)-4-(4-(4-(2-(4-(4-chlorophenyl)-2,3,9-trimethyl-6H-thieno[3,2-f][1,2,4]triazolo[4,3-a][1,4]diazepin-6-yl)acetyl)piperazin-1-yl)-4-oxobut-2-enoyl)benzonitrile] |  | < 100 | 100 to 1000 | 
12 | Cc1sc2c(c1C)C(c1ccc(Cl)cc1)=N[C@@H](CC(=O)N1CCN(C(=O)/C=C/C(=O)c3cccc(C#N)c3)CC1)c1nnc(C)n1-2 [Compound 239, (S,E)-3-(4-(4-(2-(4-(4-chlorophenyl)-2,3,9-trimethyl-6H-thieno[3,2-f][1,2,4]triazolo[4,3-a][1,4]diazepin-6-yl)acetyl)piperazin-1-yl)-4-oxobut-2-enoyl)benzonitrile] |  |  | 100 to 1000 | 100 to 1000
13 | COc1ccc(C(=O)/C=C/C(=O)N2CCN(C(=O)C[C@@H]3N=C(c4ccc(Cl)cc4)c4c(sc(C)c4C)-n4c(C)nnc43)CC2)c(Cl)c1 [Compound 240, (S,E)-1-(2-chloro-4-methoxyphenyl)-4-(4-(2-(4-(4-chlorophenyl)-2,3,9-trimethyl-6H-thieno[3,2-f][1,2,4]triazolo[4,3-a][1,4]diazepin-6-yl)acetyl)piperazin-1-yl)but-2-ene-1,4-dione] | < 10 | 10 to 100 |  | 
14 | COc1ccc(C(=O)/C=C/C(=O)N[C@H]2C[C@H](NC(=O)C[C@@H]3N=C(c4ccc(Cl)cc4)c4c(sc(C)c4C)-n4c(C)nnc43)C2)c(Cl)c1 [Compound 241, (E)-4-(2-chloro-4-methoxyphenyl)-N-((1S,3r)-3-(2-((S)-4-(4-chlorophenyl)-2,3,9-trimethyl-6H-thieno[3,2-f][1,2,4]triazolo[4,3-a][1,4]diazepin-6-yl)acetamido)cyclobutyl)-4-oxobut-2-enamide] | 90 | 180 |  | 
15 | Cc1sc2c(c1C)C(c1ccc(Cl)cc1)=N[C@@H](CC(=O)N1CCN(C(=O)/C=C/C(=O)c3ccc(=O)n(C)c3)CC1)c1nnc(C)n1-2 [Compound 242, (S,E)-1-(4-(2-(4-(4-chlorophenyl)-2,3,9-trimethyl-6H-thieno[3,2-f][1,2,4]triazolo[4,3-a][1,4]diazepin-6-yl)acetyl)piperazin-1-yl)-4-(1-methyl-6-oxo-1,6-dihydropyridin-3-y1)but-2-ene-1,4-dione] | 80 | 40 |  | 
